Reference: the NIST ThermoML archive (doi:10.1021/je030196t)

Tests used:
[1] = xn = mol fraction of the nth substance listed; details: 101.3 kPa, Liquid
[2] = refractive index (Na D-line) (dimensionless); xn = mol fraction of the nth substance listed; details: 303.15 K, 101.3 kPa, Liquid
[3] = refractive index (Na D-line) (dimensionless); details: 303.15 K; 101.33 kPa; Liquid
[4] = 101.3 kPa, Liquid

O [water] + C1CCOC1
[1], x1 = 1
Details	mass density [kg/m3]	viscosity [mPa·s]
303.15 K	–	0.754
313.15 K	991.91	0.624
323.15 K	985.7	0.544

Details	refractive index
[2], x1 = 1	1.3326

C1CCOC1 [tetrahydrofuran]
Details	refractive index
[3]	1.4048

[4]
Details	mass density [kg/m3]	viscosity [mPa·s]
303.15 K	876.6	0.463
313.15 K	865.65	0.4
323.15 K	854.3	0.372

C1COCCO1 [1,4-dioxane]
Details	refractive index
[3]	1.4181

[4]
Details	mass density [kg/m3]	viscosity [mPa·s]
303.15 K	1024.63	1.022
313.15 K	1013.3	0.871
323.15 K	1001.9	0.807

C1CCOC1 [tetrahydrofuran] + O
[1]
Details	mass density, 303.15 K [kg/m3]	mass density, 313.15 K [kg/m3]	mass density, 323.15 K [kg/m3]	viscosity, 303.15 K [mPa·s]	viscosity, 313.15 K [mPa·s]	viscosity, 323.15 K [mPa·s]
x2 = 0	876.6	865.65	854.3	0.463	0.4	0.372
x2 = 0.3081	894.98	884.04	872.9	0.574	0.519	0.34
x2 = 0.5004	912.11	901.53	890.7	0.793	0.668	0.578
x2 = 0.6319	927.1	916.82	901.63	1.001	0.833	0.698
x2 = 0.7276	941.82	931.96	921.9	1.208	0.98	0.807
x2 = 0.8002	955.23	945.99	936.5	1.344	1.061	0.868
x2 = 0.8573	966.73	958.34	949.3	1.384	1.084	0.871
x2 = 0.9034	977.2	969.74	962.2	1.341	1.021	0.829
x2 = 0.9413	984.94	–	972.7	1.226	0.92	0.74
x2 = 0.973	990.31	990.31	980.8	1.003	0.803	0.641

[2]
Details	refractive index
x2 = 0	1.4048
x2 = 0.3523	1.3994
x2 = 0.5503	1.3946
x2 = 0.6772	1.387
x2 = 0.7654	1.3786
x2 = 0.8304	1.3684
x2 = 0.8801	1.3613
x2 = 0.9195	1.3546
x2 = 0.9514	1.3405
x2 = 0.9778	1.3386

C1COCCO1 [1,4-dioxane] + O
mass density [kg/m3], [1]
Details	x2 = 0	x2 = 0.3523	x2 = 0.5503	x2 = 0.6772	x2 = 0.7654	x2 = 0.8304	x2 = 0.8801	x2 = 0.9195	x2 = 0.9514	x2 = 0.9778
303.15 K	1024.63	1029.1	1032.4	1033.83	1033.22	1030.5	1025.6	1019.51	1012.1	1004.1
313.15 K	1013.3	1018.5	1022.6	1024.7	1024.7	1022.7	1018.7	1013.4	1006.9	999.8
323.15 K	1001.9	1007.8	1012.5	1015.2	1015.9	1014.6	1011.4	1006.9	1001.3	994.9

[2]
Details	refractive index
x2 = 0	1.4181
x2 = 0.3523	1.4116
x2 = 0.5503	1.4046
x2 = 0.6772	1.3972
x2 = 0.7654	1.391
x2 = 0.8304	1.3865
x2 = 0.8801	1.3798
x2 = 0.9195	1.3698
x2 = 0.9514	1.3517
x2 = 0.9778	1.3417

O [water] + C1COCCO1
Details	mass density [kg/m3]
[1], 313.15 K, x1 = 1	992.3

Details	refractive index
[2], x1 = 1	1.3326
